# Biological target: T1, hOAT3 (Homo sapiens, UniProt Q8TCC7)
# T1 sequence (Q8TCC7 1-542): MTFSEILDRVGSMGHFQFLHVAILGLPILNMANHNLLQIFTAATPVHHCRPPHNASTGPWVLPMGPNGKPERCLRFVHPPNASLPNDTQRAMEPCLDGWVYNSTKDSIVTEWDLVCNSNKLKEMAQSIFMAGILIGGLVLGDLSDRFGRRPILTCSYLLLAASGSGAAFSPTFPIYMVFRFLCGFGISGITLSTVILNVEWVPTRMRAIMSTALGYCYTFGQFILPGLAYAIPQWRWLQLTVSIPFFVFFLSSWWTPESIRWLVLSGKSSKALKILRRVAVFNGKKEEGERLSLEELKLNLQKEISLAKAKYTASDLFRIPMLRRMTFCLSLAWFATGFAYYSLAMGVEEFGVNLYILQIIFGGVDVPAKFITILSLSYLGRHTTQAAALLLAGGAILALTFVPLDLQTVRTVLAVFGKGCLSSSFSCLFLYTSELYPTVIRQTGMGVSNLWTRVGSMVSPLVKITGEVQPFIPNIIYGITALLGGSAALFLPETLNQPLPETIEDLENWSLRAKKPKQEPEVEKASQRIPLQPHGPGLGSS
# Assay: Substrates uptake assay, S2-OAT3 cells (3H-ES)
# Assay type: in vitro ADME
# Details: for Transport activity of OAT3 (main text: percentage inhibition): negative control = 100%
# Source text: Drug transporters mediate the cellular uptake and efflux of their substrates. Therefore, cell lines overexpressing a drug transporter can be utilized to investigate inhibitors of the transporter by assessing changes in substrate uptake. For each drug transporter, we selected a well-characterized inhibitor as the positive control. Radiolabeled substrates were used to indicate the decrease in transport efficiency when the drug transporters were inhibited by PDQ or the control inhibitors.
# The concentrations of the control drugs and the substrates were stated in the assay details. Working solutions of the control inhibitors, the radiolabeled substrates, and each dose of PDQ were prepared at 200 times (200×) more concentrated solutions with DMSO for further dilution.
# Transporter-overexpressed cell lines. Human organic anion transporter-overexpressed cell lines MDCKII-OAT1 and S2-OAT3, human organic anion transport polypeptide-overexpressed cell lines HEK293A-OATP1B1 and HEK293A-OATP1B3, human organic cation transporter 2-overexpressed cell line S2-OCT2, and human multi-drug resistance protein MDR1 (or P-gp)-overexpressed cell line MDCKII-MDR1 were gifts from Japan Fuji Biomedical Co., Ltd. (Fuji, Shizuoka Prefecture, Japan). Breast cancer resistance protein-overexpressed vesicles (sf9-BCRP vesicle) were purchased from GenoMembrane Co., Ltd. (Yokohama, Kanagawa, Japan).
# Substrates uptake assay. In this assay, we studied the inhibition of PDQ against transporters OAT1, OAT3, OCT2, OATP1B1 and OATP1B3 with MDCKII-OAT1, S2-OAT3, S2-OCT2, HEK293A-OATP1B1and HEK293A-OATP1B3 cells, respectively. The radiolabeled substrates for OAT1, OAT3, OATP1B1, OATP1B3 and OCT2 were […], respectively (Table 5). Probenecid ([…]) was the positive control inhibitor of OAT1 and OAT3, while rifampicin ([…]) served as the control drug of OATP1B1 and OATP1B3. For OCT2, we used […] cimetidine to compare with the inhibitory effect of PDQ. Two times (2×) more concentrated working solutions of the drugs and the substrate were prepared with Dulbecco’s phosphate-buffered saline (DPBS, Gibco, Grand Island, NY, USA.). Then, an equal volume of 2× drug solution and 2× radiolabeled substrate solution were mixed as the working mix. All reagents were pre-warmed to 37 °C.
# The cells were digested with 0.05% trypsin/EDTA. The density of the single-cell suspension was adjusted to 2.0 × 10^5 cells/mL for S2 cells and to 1.5 × 10^5 cells/mL for MDCK II and HEK293A cells. The cell suspension was then added to the reservoirs of the 24-well plate for culture until full confluency. The medium in the wells was removed, and the wells were washed with DPBS. Then, the plate was incubated for 10 min with pre-warmed DPBS in the wells. After removing DPBS, […] of working mix was added to each well to initiate the substrate uptake process. The reaction time was 5 min for S2-OCT2 cells, while the other four types of cells were incubated with the reaction mix for 2 min. Cold DPBS was used to terminate the substrate transportation. To each well, […] NaOH ([…]) was added to lyse the cells. Then, […] cell lysate was transferred to the counting vials, and 3 mL scintillation cocktail (Aquasol-2, PerkinElmer, Waltham, MA, USA) was added. […] Each sample was replicated three times (N = 3).
# In = [100 × (U − U0)/(Uc − U0)]%(3)
# The results were expressed as mean ± standard deviation (SD) and analyzed with GraphPad Prism 8.0 software (CA, USA). The IC50 of PDQ was curve-fitted with the FORECAST function. Statistical significance was calculated using a two-tailed test, and a p value < 0.05 was considered as significant.
compound,measurement,setting,value
"CC(C)(O)[C@@H]1CC[C@@](C)([C@H]2CC[C@]3(C)[C@@H]2[C@H](O)C[C@@H]2[C@@]4(C)CC[C@H](O)C(C)(C)[C@@H]4CC[C@]23C)O1 [PDQ, (20S,24S)-dammar-20,24-epoxy-3β, 12β, 25-triol]",DPM (3H-ES uptake by OAT3),inhibitor 0.1 μM,7893.7±359.2 DPM
same,Transport activity of OAT3 (main text: percentage inhibition),inhibitor 0.1 μM,99.5±4.5%
same,DPM (3H-ES uptake by OAT3),inhibitor 0.3 μM,7623.7±652.1 DPM
same,Transport activity of OAT3 (main text: percentage inhibition),inhibitor 0.3 μM,96.1±8.2%
same,DPM (3H-ES uptake by OAT3),inhibitor 1 μM,7285.3±273.2 DPM
same,Transport activity of OAT3 (main text: percentage inhibition),inhibitor 1 μM,91.8±3.4%
same,DPM (3H-ES uptake by OAT3),inhibitor 3 μM,7192.7±157.6 DPM
same,Transport activity of OAT3 (main text: percentage inhibition),inhibitor 3 μM,90.6±2.0%
same,DPM (3H-ES uptake by OAT3),inhibitor 10 μM,4919.0±360.3 DPM
same,Transport activity of OAT3 (main text: percentage inhibition),inhibitor 10 μM,62.0±4.5%
same,DPM (3H-ES uptake by OAT3),inhibitor 30 μM,4541.3±532.8 DPM

# Reference: PMC11173382, “In Vitro Investigations into the Potential Drug Interactions of Pseudoginsenoside DQ Mediated by Cytochrome P450 and Human Drug Transporters” (Molecules, 2024)
